Measured values published in US20110092463A1, “COMBINATION FOR USE IN THE TREATMENT OF INFLAMMATORY DISORDERS” (priority 2008, published 2011).

System: human macrophage cell-line MonoMac-6 (MM6)
Assay: PMA-induced release of tumor necrosis factor (TNF) from MonoMac-6 cells, Human TNF-α ELISA
Type: cell-based
Conditions: n=2; for TNF concentration as % of the untreated PMA-stimulated control MM6 cells: 48 hours, PMA 10 ng/mL five hours, mean; for mean TNF concentration after PMA stimulation: 48 hours treatment, then PMA 10 ng/mL five hours, untreated control 75.3 pg/mL
Description: Cells from the human macrophage cell-line MonoMac-6 (MM6) (Ziegler-Heitbrock et al, Int. J. Cancer, 41, 456 (1988)) were cultured (37° C./5% CO2) in RPMI-1640 medium supplemented with 1 mM sodium pyruvate, 1× nonessential amino acids, 10 μg/mL insulin, 1 mM oxalacetic acid, 100 units/mL penicillin, 100 μg/mL streptomycin and 10% (v/v) fetal bovine serum. At the start of the experiment, MM6 cells were seeded in 96-well plates at a density of 1×10^5 cells/mL (200 μL per well). The MM6 cells were treated (incubation conditions as above) with indicated final concentrations of the test drugs for 48 hours prior stimulation with phorbol-12-myristate-13-acetate (PMA; Sigma-Aldrich, Stockholm, Sweden) followed by measurement of PMA-induced release of tumor necrosis factor (TNF) (see below for details). To stimulate formation and release of TNF, the MM6 cells were incubated (37° C./5% CO2) for five hours (in RPMI-1640 with 10% fetal bovine serum with supplements as above) with PMA at a final concentration of 10 ng/mL. After spinning down the cells after the different MM6 incubations/stimulations (see above and below), the concentrations of TNF in the supernatants were quantitated using Human TNF-α ELISA Kit from Mabtech (Nacka, Sweden) according to instructions supplied by the manufacturer. Stock solutions of pemirolast (potassium salt; purchased from American Custom Chemicals Corporation, San Diego, USA) and losartan (potassium salt; purchased from AK Scientific, Inc., Mountain View, Calif., USA) were made in sterile saline. […] However, after five hours of PMA stimulation, the mean TNF concentration in the supernatants of untreated MM6 cells was 75.3 pg/mL (n=2).

[1] = 0.1 μM of each drug (alone or in combination)
[2] = 1 μM of each drug (alone or in combination)
[3] = 10 μM of each drug (alone or in combination)
[4] = 100 μM of each drug (alone or in combination)

| SMILES | TNF concentration as % of the untreated PMA-stimulated control MM6 cells [1] [%] | mean TNF concentration after PMA stimulation (0.1 μM test drug) [pg/mL] | TNF concentration as % of the untreated PMA-stimulated control MM6 cells [2] [%] | mean TNF concentration after PMA stimulation (1 μM test drug) [pg/mL] | TNF concentration as % of the untreated PMA-stimulated control MM6 cells [3] [%] | mean TNF concentration after PMA stimulation (10 μM test drug) [pg/mL] | TNF concentration as % of the untreated PMA-stimulated control MM6 cells [4] [%] | mean TNF concentration after PMA stimulation (100 μM test drug) [pg/mL] |
| --- | --- | --- | --- | --- | --- | --- | --- | --- |
| CCCCc1nc(Cl)c(CO)n1Cc1ccc(-c2ccccc2-c2nn[nH]n2)cc1 [losartan] | 98 | 73.8 | 90 | 67.5 | 99 | 74.5 | 119 | 89.8 |
| Cc1cccn2c(=O)c(-c3nnn[nH]3)cnc12 [pemirolast] | 88 | 66.5 | 85 | 64.0 | 72 | 54.3 | 96 | 72.2 |
